In the assay the target is T1, recombinant human ALX receptor (Homo sapiens, UniProt P25090).
T1 construct: expressed in transfected cells; host or cells: HEK293 (HEK293-hALXR-Gα16)
T1 sequence (P25090 1-351): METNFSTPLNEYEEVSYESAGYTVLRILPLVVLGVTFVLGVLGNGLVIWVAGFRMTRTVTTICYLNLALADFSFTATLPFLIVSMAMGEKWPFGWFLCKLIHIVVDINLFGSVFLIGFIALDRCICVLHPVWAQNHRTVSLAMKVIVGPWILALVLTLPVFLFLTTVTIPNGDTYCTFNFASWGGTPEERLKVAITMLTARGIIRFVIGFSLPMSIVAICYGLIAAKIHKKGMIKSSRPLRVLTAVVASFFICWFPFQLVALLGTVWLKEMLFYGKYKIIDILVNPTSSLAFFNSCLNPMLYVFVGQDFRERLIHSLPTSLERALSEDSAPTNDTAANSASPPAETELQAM
Kind of assay: Intracellular calcium measurements (FLIPR), ALX receptor agonistic activity. Conditions: HEK293-hALXR-Gα16 cells; Fluo-4 calcium fluorescence; normalized to WKYMVm 10 nM. It is filed as cell-based. The method, then:
The ALX receptor agonistic activity of the compounds of formula (I) is determined in accordance with the following experimental method.
Intracellular Calcium Measurements:
Cells expressing recombinant human ALX receptor and the G-protein Gα16 (HEK293-hALXR-Gα16) were grown to 80% confluency in Growing Medium (GM). Cells were detached from culture dishes with a cell dissociation buffer (Invitrogen, 13151-014), and collected by centrifugation at 1,000 rpm at rt for 5 min in Assay Buffer (AB) (equal parts of Hank's BSS (Gibco, 14065-049) and DMEM without Phenol Red (Gibco, 11880-028)). After 60 min incubation at 37° C. under 5% CO2 in AB supplemented with 1 μM Fluo-4 (AM) (Invitrogen, F14202) and 20 mM HEPES (Gibco, 15630-056), the cells were washed and resuspended in AB. They were then seeded onto 384-well FLIPR assay plates (Greiner, 781091) at 50,000 cells in 70 μl per well and sedimented by centrifugation at 1,000 rpm for 1 min. Stock solutions of test compounds were made up at a concentration of 10 mM in DMSO, and serially diluted in AB to concentrations required for activation dose response curves. WKYMVm (Phoenix Peptides) was used as a reference agonist. A FLIPR Tetra instrument (Molecular Devices) was operated according to the manufacturer's standard instructions, adding 4 μl of test compound dissolved at 10 mM in DMSO and diluted prior to the experiment in assay buffer to obtain the desired final concentration. Changes in fluorescence were monitored before and after the addition of test compounds at lex=488 nm and lem=540 nm. Emission peak values above base level after compounds addition were exported after base line subtraction. Values were normalized to high-level control (WKYMVm compound, 10 nM final concentration) after subtraction of the base line value (AB addition).
Broadly, the EC50 is the midpoint of the concentration-response curve. For the molecule `CC(=O)CCCCc1nc(NC(=O)c2nc(C)oc2-c2cccc(C)c2)co1` [Example 6, 2-Methyl-5-m-tolyl-oxazole-4-carboxylic acid [2-(5-oxo-hexyl)-oxazol-4-yl]-amide], the EC50 stood at 9.8 nM.

Take `CC(=O)c1cccc(Cc2nc(NC(=O)OCc3cccc(OC(F)(F)F)c3)co2)c1` [Example 15, [2-(3-Acetyl-benzyl)-oxazol-4-yl]-carbamic acid 3-trifluoromethoxy-benzyl ester]: the concentration giving a half-maximal response (EC50) turned out to be 48 nM.

Consider `CC(=O)CCCCc1nc(NC(=O)c2ncsc2-c2cccc(F)c2)co1` [Example 7, 5-(3-Fluoro-phenyl)-thiazole-4-carboxylic acid [2-(5-oxo-hexyl)-oxazol-4-yl]-amide], for which the EC50 worked out at 784 nM.

For `CC(=O)CCCCc1nc(NC(=O)c2ncoc2-c2ccc(F)cc2)co1` [Example 8, 5-(4-Fluoro-phenyl)-oxazole-4-carboxylic acid [2-(5-oxo-hexyl)-oxazol-4-yl]-amide], the EC50 was determined as 86 nM.

For the molecule `CC(=O)c1ccn(Cc2nc(NC(=O)c3nc(C4CC4)sc3-c3ccccc3)co2)n1` [Example 16, 2-Cyclopropyl-5-phenyl-thiazole-4-carboxylic acid [2-(3-acetyl-pyrazol-1-ylmethyl)-oxazol-4-yl]-amide], the EC50 turned out to be 6560 nM.

Turning to `CC(=O)c1ccc(Cc2nc(NC(=O)c3ncoc3-c3ccccc3)cs2)o1` [Example 20, 5-Phenyl-oxazole-4-carboxylic acid [2-(5-acetyl-furan-2-ylmethyl)-thiazol-4-yl]-amide], the 50% effective concentration (EC50) was 62 nM.

For the molecule `CC(=O)c1ccc(Cc2nc(NC(=O)c3nc(C)oc3-c3cccc(C)c3)cs2)o1` [Example 21, 2-Methyl-5-m-tolyl-oxazole-4-carboxylic acid [2-(5-acetyl-furan-2-ylmethyl)-thiazol-4-yl]-amide], the EC50 turned out to be 216 nM.

`CC(F)(F)CCCCc1nc(NC(=O)OCc2ccccc2Cl)co1` [Example 4, [2-(5,5-Difluoro-hexyl)-oxazol-4-yl]-carbamic acid 2-chloro-benzyl ester]: the concentration for a half-maximal effect (EC50) was determined as 13 nM.

In the case of `CC(=O)c1ccc(Cc2nc(NC(=O)c3ncoc3-c3ccccc3)cs2)s1` [Example 18, 5-Phenyl-oxazole-4-carboxylic acid [2-(5-acetyl-thiophen-2-ylmethyl)-thiazol-4-yl]-amide], the EC50 came to 1570 nM.

With `CC(=O)c1ccn(Cc2nc(NC(=O)OCc3ccc(C(F)(F)F)cc3)co2)n1` [Example 13, [2-(3-Acetyl-pyrazol-1-ylmethyl)-oxazol-4-yl]-carbamic acid 4-trifluoromethyl-benzyl ester], the EC50 came out at 12 nM.

`CC(=O)CCCCc1nc(NC(=O)c2ncoc2-c2ccccc2)co1` [Example 2, 5-Phenyl-oxazole-4-carboxylic acid [2-(5-oxo-hexyl)-oxazol-4-yl]-amide]: the EC50 came out at 18 nM.

Turning to `CC(=O)c1ccc(Cc2nc(NC(=O)OCc3ccccc3Cl)co2)s1` [Example 14, [2-(5-Acetyl-thiophen-2-ylmethyl)-oxazol-4-yl]-carbamic acid 2-chloro-benzyl ester], the EC50 was 2.2 nM.

In the case of `CCc1nc(C(=O)Nc2coc(CCCCC(C)=O)n2)c(-c2ccccc2)o1` [Example 9, 2-Ethyl-5-phenyl-oxazole-4-carboxylic acid [2-(5-oxo-hexyl)-oxazol-4-yl]-amide], the EC50 is 3.2 nM.

As for `CC(=O)c1ccn(Cc2nc(NC(=O)OCc3ccc(F)cc3Cl)co2)n1` [Example 11, [2-(3-Acetyl-pyrazol-1-ylmethyl)-oxazol-4-yl]-carbamic acid 2-chloro-4-fluoro-benzyl ester], the EC50 stood at 0.5 nM.

As for `CC(=O)CCCCc1nc(NC(=O)OCc2ccccc2Cl)co1` [Example 1, [2-(5-Oxo-hexyl)-oxazol-4-yl]-carbamic acid 2-chloro-benzyl ester], the EC50 was 0.3 nM.

For the molecule `COc1cccc(COC(=O)Nc2coc(Cn3ccc(C(C)=O)n3)n2)c1` [Example 12, [2-(3-Acetyl-pyrazol-1-ylmethyl)-oxazol-4-yl]-carbamic acid 3-methoxy-benzyl ester], the EC50 was 1 nM.

Consider `Cc1cccc(-c2oc(C)nc2C(=O)Nc2coc(CCCCC(C)(F)F)n2)c1` [Example 5, 2-Methyl-5-m-tolyl-oxazole-4-carboxylic acid [2-(5,5-difluoro-hexyl)-oxazol-4-yl]-amide], for which the half-maximal effective concentration (EC50) was 194 nM.

For `CC(=O)c1ccn(Cc2nc(NC(=O)OCc3ccccc3Cl)co2)n1` [Example 3, [2-(3-Acetyl-pyrazol-1-ylmethyl)-oxazol-4-yl]-carbamic acid 2-chloro-benzyl ester], the EC50 was determined as 0.7 nM.

As to `CC(=O)c1cccc(Cc2nc(NC(=O)/C=C/c3ccc(C(F)(F)F)cc3)co2)c1` [Example 17, (E)-N-[2-(3-Acetyl-benzyl)-oxazol-4-yl]-3-(4-trifluoromethyl-phenyl)-acrylamide], the concentration for a half-maximal effect (EC50) came to 1310 nM.

`CC(=O)c1ccc(Cc2nc(NC(=O)c3nc(C)oc3-c3cccc(Cl)c3)cs2)s1` [Example 19, 5-(3-Chloro-phenyl)-2-methyl-oxazole-4-carboxylic acid [2-(5-acetyl-thiophen-2-ylmethyl)-thiazol-4-yl]-amide]: the half-maximal effective concentration (EC50) came to 3640 nM.

In the case of `O=C(Nc1coc(Cn2cc(Br)cn2)n1)OCc1ccccc1Cl` [Example 10, [2-(4-Bromo-pyrazol-1-ylmethyl)-oxazol-4-yl]-carbamic acid 2-chloro-benzyl ester], the EC50 turned out to be 72 nM.

These data come from patent US8674111B2, “Oxazole and thiazole derivatives as ALX receptor agonists” (Actelion Pharmaceuticals Ltd., priority 2009, dated 2014).
